Assay results reported in patent US10124033B2, “Peptides and methods of use” (BAXALTA INCORPORATED, priority 2014, dated 2018).
pEC50, pIC50: −log10 of the molar value. Read-outs that look alike come from different tables or passages of the source. Non-standard residues stand in square brackets, D forms with d. Residues, ends and D or L forms follow the SMILES beside them. Tle = CC(C)(C)[C@H](N)C(=O)O

What was measured:
Protein S = molecular target: T1, Protein S (Homo sapiens, UniProt P07225); experiment: LANCE IC50 assay (competition TR-FRET) with tracer JBS0684; assay type: binding
T1 sequence (P07225 41-676 limits assumed): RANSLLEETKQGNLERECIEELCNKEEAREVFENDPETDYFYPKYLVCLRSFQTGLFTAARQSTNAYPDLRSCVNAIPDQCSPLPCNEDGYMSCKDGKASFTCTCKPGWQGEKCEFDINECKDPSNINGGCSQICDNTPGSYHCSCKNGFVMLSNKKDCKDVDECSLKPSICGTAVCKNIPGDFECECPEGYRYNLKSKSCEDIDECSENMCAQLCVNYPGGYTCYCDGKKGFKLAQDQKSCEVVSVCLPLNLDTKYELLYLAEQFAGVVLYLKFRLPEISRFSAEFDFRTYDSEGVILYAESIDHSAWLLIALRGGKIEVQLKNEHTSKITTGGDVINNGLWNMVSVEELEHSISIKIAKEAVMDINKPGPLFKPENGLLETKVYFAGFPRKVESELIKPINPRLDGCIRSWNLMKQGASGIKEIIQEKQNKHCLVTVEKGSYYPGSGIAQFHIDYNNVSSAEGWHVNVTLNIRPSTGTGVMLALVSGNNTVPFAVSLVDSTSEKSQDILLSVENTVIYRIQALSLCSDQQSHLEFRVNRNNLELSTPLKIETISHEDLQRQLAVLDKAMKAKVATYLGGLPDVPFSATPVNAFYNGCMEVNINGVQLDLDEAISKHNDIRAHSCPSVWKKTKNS
Description: Peptides also were characterized in a competition, homogenous europium-based TR-FRET assay (LANCE IC50 assay) using JBS0684 as a tracer (i.e., competitor for Protein S binding). The following reagents were mixed together in a Perkin-Elmer ProxiPlate MTP well (indicated concentration is the final concentration): Eu-labeled Protein S (10 nM), Ulight™-labeled Streptavidin (100 nM), tracer (JBS0684 (300 nM)), and peptide (titrated in three-fold dilution steps). The final volume was 50 μl/well. The reaction mix was incubated for 1 hour at room temperature, then the fluorescence emission at 665 nm was recorded on a multi-mode reader (SpectraMax® M5, Molecular Devices) using the following instrument settings: Ex 340 nm, Em 665 nm, delay 50 μsec, integration 100 μsec, reads 100. Binding of tracer peptides to soluble europium-labeled Protein S was detected by Streptavidin labeled with an acceptor fluorophor (ULight™). Inhibition of tracer-binding to Protein S by a non-biotinylated peptide results in a decrease of TR-FRET between the Eu-labeled Protein S and ULight™-labeled Streptavidin. IC50 values were obtained from peptide titration curves at constant tracer concentration using non-linear regression of the fluorescence emission signals at 665 nm.

[1] = molecular target: T2, Protein S/APC cofactor activity (Homo sapiens, UniProt P07225); experiment: CAT assay: Protein S/APC-dependent thrombin generation in FVIII-inhibited plasma; assay type: biochemical; settings: Protein S-depleted plasma supplemented with APC and Protein S, FVIII-inhibited
T2 construct: host or cells: plasma
T2 sequence (P07225 41-676 limits assumed): T1 sequence (P07225 41-676 limits assumed)
Description: Peptides also were tested for improvement of Protein S/APC-dependent thrombin generation in hemophilic plasma using a CAT assay. Protein S enhances the anticoagulation of APC in plasma. The CAT assay quantifies the effect of Protein S on APC-mediated thrombin generation initiated via the extrinsic coagulation pathway (Nicolaes, Blood Coagul. Fibrinolysis, 8:28 (1997)). APC (35 nM) and Protein S (25 nM) was added to Protein 5-depleted plasma, and plasma samples were incubated with high titer heat inactivated anti-human FVIII plasma raised in goat (4490 BU/ml; Baxter BioScience, Vienna, Austria; 50 BU/ml final plasma concentration). Thrombin formation in plasma was followed by calibrated automated thrombography (CAT) in a Fluoroskan Ascent® reader (Thermo Labsystems, Helsinki, Finland) and quantified via the thrombin peak-height. Thrombin generation was determined at high tissue factor (TF) concentration in the absence and in the presence of APC at a concentration that reduces the peak height to ˜20%. The inhibitory effect of peptides described herein on the APC cofactor activity of Protein S (PS) in plasma was measured in FVIII-inhibited pooled normal plasma supplemented with APC. Complete (100%) Protein S/APC inhibition is the height of the thrombin peak without addition of APC. Lack of (0%) PS/APC inhibition correlates to the thrombin peak-height value with a certain amount of APC. Peptides were ranked by their normalized values in comparison to the mean of wild-type controls including SD at two defined peptide concentrations (EC50 and EC90).
Exemplary conditions for the CAT assay are as follows. Protein S-depleted plasma was supplemented with 35 nM APC and […]. Stock APC was diluted with 10 pM TF and 15 μM PL. Lyophilized peptides were dissolved in 100% DMSO to a 5 mM stock concentration and further diluted with HNABSA5-buffer+0.1% Tween80. […] In a 96 well Immulon 2HB (transparent), U-bottom (ThermoElectron) plate was mixed 80 μl plasma (+CTI+Z994-5), 10 μl peptide dilution, and 10 μl APC-TF-PL-MIX or Calibrator. Thrombin generation was initiated by dispensing 20 μL of FluCa reagent containing fluorogenic substrate and HEPES-buffered CaCl2 (100 mM) into each well. Fluorescence intensity was recorded at 37° C. using the Fluoroskan Ascent® reader (filters 390 nm excitation and 460 nm emission). The parameters of the resulting thrombin generation curves were calculated using the Thrombinoscope™ software (Thrombinoscope) and thrombin calibrator to correct for inner filter and substrate consumption effects (Hemker, Pathophysiol Haemost Thromb, 33: 415 (2003)).

[2] = Table 4, multiple substitutions in JBS2572, read-out: LANCE IC50

pIC50 (Protein S; [2])	SMILES	other results
8.80	CC(=O)N[C@@H](Cc1ccc(O)cc1)C(=O)NCC(=O)N[C@@H](CC(C)C)C(=O)N[C@H](C(=O)N[C@@H](CO)C(=O)N[C@@H](C)C(=O)NCC(=O)N[C@@H](Cc1c[nH]c2ccccc12)C(=O)N[C@@H](Cc1ccc(O)cc1)C(=O)N[C@@H](CC(=O)O)C(=O)N[C@@H](Cc1ccc(O)cc1)C(=O)N[C@@H](CC(N)=O)C(=O)N[C@@H](Cc1ccccc1)C(=O)N[C@@H](CC(=O)O)C(=O)N[C@H](C(=O)N[C@@H](Cc1ccc(O)cc1)C(=O)N[C@@H](CCCNC(=N)N)C(=O)N[C@@H](CCC(=O)O)C(=O)N[C@@H](Cc1ccccc1)C(=O)N[C@H](C(N)=O)[C@@H](C)O)[C@@H](C)O)C(C)C [JBS3190] (Ac-YGLVSAGWYDYNFDTYREFT-NH2)	–
8.60	CC(=O)N[C@H](C(=O)NCC(=O)N[C@@H](CC(C)C)C(=O)N[C@H](C(=O)N[C@@H](CCC(=O)O)C(=O)N[C@@H](C)C(=O)NCC(=O)N[C@@H](Cc1c[nH]c2ccccc12)C(=O)N[C@@H](Cc1ccc(O)cc1)C(=O)N[C@@H](CC(=O)O)C(=O)N[C@@H](Cc1ccc(O)cc1)C(=O)N[C@@H](CC(N)=O)C(=O)N[C@@H](Cc1ccccc1)C(=O)N[C@@H](CC(=O)O)C(=O)N[C@H](C(=O)N[C@@H](Cc1ccc(O)cc1)C(=O)N[C@@H](CCCNC(=N)N)C(=O)N[C@@H](CCC(=O)O)C(=O)N[C@@H](Cc1ccccc1)C(=O)N[C@H](C(N)=O)[C@@H](C)O)C(C)C)C(C)C)[C@@H](C)O [JBS3193] (Ac-TGLVEAGWYDYNFDVYREFT-NH2)	–
8.59	CSCC[C@H](NC(=O)[C@H](Cc1ccc(O)cc1)NC(=O)[C@@H](NC(=O)[C@H](CC(=O)O)NC(=O)[C@H](Cc1ccccc1)NC(=O)[C@H](CC(N)=O)NC(=O)[C@H](Cc1ccc(O)cc1)NC(=O)[C@H](CC(=O)O)NC(=O)[C@H](Cc1ccc(O)cc1)NC(=O)[C@H](Cc1c[nH]c2ccccc12)NC(=O)CNC(=O)[C@H](C)NC(=O)[C@H](CO)NC(=O)[C@@H](NC(=O)[C@H](CC(C)C)NC(=O)CNC(=O)[C@@H](NC(C)=O)[C@@H](C)O)C(C)C)[C@@H](C)O)C(=O)N[C@@H](CCC(=O)O)C(=O)N[C@@H](Cc1ccccc1)C(=O)N[C@H](C(N)=O)[C@@H](C)O [JBS3186] (Ac-TGLVSAGWYDYNFDTYMEFT-NH2)	–
8.80	CC(=O)N[C@H](C(=O)NCC(=O)N[C@@H](CC(C)C)C(=O)N[C@H](C(=O)N[C@@H](CO)C(=O)N[C@@H](C)C(=O)NCC(=O)N[C@@H](Cc1c[nH]c2ccccc12)C(=O)N[C@@H](Cc1ccc(O)cc1)C(=O)N[C@@H](CC(=O)O)C(=O)N[C@@H](Cc1ccc(O)cc1)C(=O)N[C@@H](CC(N)=O)C(=O)N[C@@H](Cc1ccccc1)C(=O)N[C@@H](CC(=O)O)C(=O)N[C@H](C(=O)N[C@@H](Cc1ccc(O)cc1)C(=O)N[C@@H](CCCNC(=N)N)C(=O)N[C@@H](CCC(=O)O)C(=O)N[C@@H](Cc1ccccc1)C(=O)N[C@H](C(N)=O)[C@@H](C)O)[C@@H](C)O)C(C)(C)C)[C@@H](C)O [JBS3202, Ac-TGL-Tle-SAGWYDYNFDTYREFT-NH2] (Ac-TGL[Tle]SAGWYDYNFDTYREFT-NH2)	–
–	CC(=O)N[C@H](C(=O)NCC(=O)N[C@@H](Cc1c[nH]cn1)C(=O)N[C@H](C(=O)N[C@@H](CO)C(=O)N[C@@H](C)C(=O)NCC(=O)N[C@@H](Cc1c[nH]c2ccccc12)C(=O)N[C@@H](Cc1ccc(O)cc1)C(=O)N[C@@H](CC(=O)O)C(=O)N[C@@H](Cc1ccc(O)cc1)C(=O)N[C@@H](CC(N)=O)C(=O)N[C@@H](Cc1ccccc1)C(=O)N[C@@H](CC(=O)O)C(=O)N[C@@H](Cc1c[nH]cn1)C(=O)N[C@@H](Cc1ccc(O)cc1)C(=O)N[C@@H](CCCNC(=N)N)C(=O)N[C@@H](CCC(=O)O)C(=O)N[C@@H](Cc1ccccc1)C(=O)N[C@H](C(N)=O)[C@@H](C)O)C(C)C)[C@@H](C)O [JBS2512] (Ac-TGHVSAGWYDYNFDHYREFT-NH2)	pEC50 [1]: 7.62
–	CC(=O)N[C@H](C(=O)NCC(=O)N[C@@H](CC(C)C)C(=O)N[C@H](C(=O)N[C@@H](CO)C(=O)N[C@@H](C)C(=O)NCC(=O)N[C@@H](Cc1c[nH]c2ccccc12)C(=O)N[C@@H](Cc1ccc(O)cc1)C(=O)N[C@@H](CC(=O)O)C(=O)N[C@@H](Cc1ccc(O)cc1)C(=O)N[C@@H](CC(N)=O)C(=O)N[C@@H](CC(N)=O)C(=O)N[C@@H](CC(=O)O)C(=O)N[C@H](C(=O)N[C@@H](Cc1ccc(O)cc1)C(=O)N[C@@H](CCCNC(=N)N)C(=O)N[C@@H](CCC(=O)O)C(=O)N[C@@H](Cc1ccccc1)C(=O)N[C@H](C(N)=O)[C@@H](C)O)[C@@H](C)O)C(C)C)[C@@H](C)O [JBS3194] (Ac-TGLVSAGWYDYNNDTYREFT-NH2)	pIC50 (Protein S): 8.74
8.60	CSCC[C@H](NC(=O)[C@H](Cc1ccc(O)cc1)NC(=O)[C@H](Cc1c[nH]cn1)NC(=O)[C@H](CC(=O)O)NC(=O)[C@H](CC(N)=O)NC(=O)[C@H](CC(N)=O)NC(=O)[C@H](Cc1ccc(O)cc1)NC(=O)[C@H](CC(=O)O)NC(=O)[C@H](Cc1ccc(O)cc1)NC(=O)[C@H](Cc1c[nH]c2ccccc12)NC(=O)CNC(=O)[C@H](C)NC(=O)[C@H](CO)NC(=O)[C@@H](NC(=O)[C@H](CC(C)C)NC(=O)CNC(=O)[C@@H](NC(C)=O)[C@@H](C)O)C(C)C)C(=O)N[C@@H](CCC(=O)O)C(=O)N[C@@H](Cc1ccccc1)C(=O)N[C@H](C(N)=O)[C@@H](C)O [JBS3198] (Ac-TGLVSAGWYDYNNDHYMEFT-NH2)	–
